“And” between values parts separate entries of the source, which are not always exact repeats. Equal entries are not always repeated.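 Growth conditions: 96-well plates. Treatment: test compound, 48 hours, 5 concentrations. Analysis: linear interpolation between bracketing concentrations; unreached endpoints set to highest concentration. GI50 is the concentration that inhibits growth by half. TGI is the concentration that stops growth completely.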
Key:
Test in all cases: inhibition of tumour cell growth, NCI panel, 48 h
[1] = system: SN12C renal
[2] = system: HCT-15 colon
[3] = system: SNB-19 CNS
[4] = system: U251 CNS
[5] = system: DU-145 prostate
[6] = system: MCF7 breast
[7] = system: SK-OV-3 ovarian
[8] = system: MOLT-4 leukemia
[9] = system: A549 NSCLC
[10] = system: M14 melanoma

Structure (SMILES)	GI50 [1]	TGI [1]	GI50 [2]	TGI [2]	GI50 [3]	TGI [3]	GI50 [4]	TGI [4]	GI50 [5]	TGI [5]	GI50 [6]	TGI [6]	GI50 [7]	TGI [7]	GI50 [8]	TGI [8]	GI50 [9]	TGI [9]	GI50 [10] [µM]	TGI [10] [µM]
COc1cc2nc(SCc3cc(OC)c(OC)c(OC)c3)n(Cc3ccccc3)c(=O)c2cc1OC	7.65 µM	> 100 µM	1.08 µM	> 100 µM	5.4 µM	48.2 µM	3.64 µM	19.3 µM	5.38 µM	> 100 µM	0.742 µM	> 100 µM	3.18 µM	18.6 µM	3.81 µM	> 100 µM	3.14 µM	> 100 µM	2.11	> 26.8
CC[n+]1oc(C(=O)c2ccc(Cl)cc2)c(-c2ccccc2)c1-c1ccccc1.[Cl][Fe]([Cl])([Cl])[Cl]	83.5 µM	> 100 µM	72.6 µM	> 100 µM	> 100 µM	> 100 µM	6.63 µM	> 100 µM	18.9 µM	75 µM	17.4 µM	65.5 µM	46.7 µM	> 100 µM	47.2 µM	> 100 µM	22.1 µM	68 µM	52.5	> 100
CCOC(=O)Nc1nc2ccc(OC)cc2s1	> 100 µM	> 100 µM	> 100 µM	> 100 µM	> 100 µM	> 100 µM	> 100 µM	> 100 µM	> 100 µM	> 100 µM	> 100 µM	> 100 µM	> 100 µM	> 100 µM	> 100 µM	> 100 µM	> 100 µM	> 100 µM	> 100	> 100
Cc1[nH]nc(C(F)(F)F)c1N=NN(C)C		30.1 µM		24.4 µM		28.8 µM		36.5 µM		24.2 µM		14.6 µM		25 µM		5.02 µM		> 100 µM		29.7
CS(=O)(=O)CCNCc1cc(-c2cc3c(Nc4ccc(OCc5cccc(F)c5)c(Cl)c4)ncnc3s2)cs1	15.3 µM	> 25 µM	5.55 µM	> 20.9 µM	24.6 µM	> 25 µM	9.34 µM	> 25 µM	13.3 µM	> 25 µM	10.8 µM	> 25 µM	1.04 µM	> 19.6 µM	8.9 µM	> 25 µM	10.8 µM	> 25 µM	13.4	> 25
COc1cc(OC)c(C(=O)/C=C/c2cc3c(cc2OCc2ccccc2)OC(C)(C)CC3)cc1CC=C(C)C	7.36 µM	> 25 µM	3.84 µM	9.68 µM	6.22 µM	17.3 µM	4.03 µM	10.8 µM	5.95 µM	> 25 µM	3.08 µM	11.2 µM	7.42 µM	> 25 µM	7.03 µM	> 25 µM	8.92 µM	> 25 µM	3.63	9.43
CC1CCC2(NC1)OC1CC3C4CC=C5CC(O)CCC5(C)C4CCC3(C)C1C2C (configuration not stated)		50.8 µM and 38.4 µM		> 100 µM	18.9 µM and 6.38 µM	99.5 µM and 62.1 µM	23.7 µM and 4.92 µM	64.7 µM and 23.5 µM	94.2 µM and 35.3 µM	> 100 µM		> 100 µM		69.2 µM and 38.6 µM		55.5 µM and 59.5 µM	42.4 µM and 20.3 µM	> 100 µM		> 100
[C](#Cc1ccccc1)[Hg][C]#Cc1ccccc1	30.1 µM	73.3 µM	21.1 µM	43.7 µM	47.3 µM	> 100 µM	22.4 µM	43.9 µM	48.2 µM	> 100 µM	10.4 µM	56.9 µM	> 100 µM	> 100 µM	34.3 µM	> 100 µM	50.1 µM	> 100 µM	75.1	> 100
Cc1nc(-c2ccccc2)n2nc(NCCCN3CCOCC3)ncc12	> 25 µM	> 25 µM	12.8 µM	> 25 µM	> 25 µM	> 25 µM	> 25 µM	> 25 µM	22.7 µM	> 25 µM	> 25 µM	> 25 µM	6.1 µM	17.9 µM	> 25 µM	> 25 µM	> 25 µM	> 25 µM	16.5	> 25
COC(=O)c1cc2c3ccccc3n3c(=O)c4cc5ccc(N(S(=O)(=O)c6ccc(C)cc6)S(=O)(=O)c6ccc(C)cc6)cc5nc4c(n1)c23	> 100 µM	> 100 µM	> 100 µM	> 100 µM	26.6 µM	78.3 µM	10.1 µM	45.2 µM	> 100 µM	> 100 µM	> 100 µM	> 100 µM	26.2 µM	> 100 µM	28.6 µM	64.5 µM	> 100 µM	> 100 µM	54.4	> 100
OCc1ccc(N2CCc3cccc(F)c3C2)cc1Cl	14.6 µM	> 70.2 µM	10.4 µM	36.3 µM	30.9 µM	> 100 µM	< 0.0297 µM	36.3 µM	4.5 µM	30.3 µM		53.4 µM	1.89 µM	14.6 µM	23 µM	71 µM	0.189 µM	15.7 µM	29.3	> 78.7
CCNc1cc(-c2cccc(OC(F)(F)F)c2)nc2ccc(N3CCCC3)cc12	1.7 µM	3.97 µM	1.71 µM	5.96 µM	3.12 µM	10.9 µM	1.68 µM	3.62 µM	2.2 µM	5.88 µM	1.84 µM	6.54 µM	1.8 µM	3.86 µM	2.08 µM	7.08 µM	2.68 µM	10.5 µM	1.64	3.28
COc1ccc(-c2ccncc2)cc1C(N)=O	> 25 µM	> 25 µM	> 25 µM	> 25 µM	> 25 µM	> 25 µM	> 25 µM	> 25 µM	> 25 µM	> 25 µM	> 25 µM	> 25 µM	> 25 µM	> 25 µM	> 25 µM	> 25 µM	> 25 µM	> 25 µM	> 25	> 25
O=C(/C=C/C12c3ccccc3C(c3ccccc31)C1C(=O)NC(=O)C12)c1ccc(Cl)cc1Cl (configuration not stated)	1.77 µM	3.29 µM	1.9 µM	4.57 µM	1.62 µM	3.03 µM	1.68 µM	3.06 µM	1.83 µM	3.43 µM	1.72 µM	3.79 µM	2.4 µM	6.71 µM	1.77 µM	5.58 µM	2.23 µM	6.03 µM	1.83	3.54
CC[C@H](Nc1ncnc2nc[nH]c12)c1nc2cccc(F)c2c(=O)n1-c1ccccc1	7.4 µM	> 100 µM	37.6 µM	> 100 µM	39.3 µM	> 100 µM	51.2 µM	> 100 µM	45.3 µM	> 100 µM	8.73 µM	> 100 µM	16.7 µM	> 100 µM	13.9 µM	> 87.4 µM	31.2 µM	> 100 µM	40.4	> 100
Cc1nc(N)nc2c1CCC(O)S2 (configuration not stated)	7.81 µM	56.2 µM	26.3 µM	> 100 µM	6.43 µM	41.1 µM	3.3 µM	11.5 µM	3.5 µM	12.2 µM	3.02 µM	10.4 µM	11.3 µM	25.6 µM	2.91 µM	8.36 µM	19.3 µM	78.2 µM	8.44	31.6
CC(C)CCC[C@@H](C)[C@H]1CC[C@H]2[C@@H]3CC[C@H]4C[C@@H](CCC=C(c5cc(Cl)c(O)c(C(=O)O)c5)c5cc(Cl)c(O)c(C(=O)O)c5)CC[C@]4(C)[C@H]3CC[C@]12C		> 100 µM		> 100 µM		> 100 µM		> 100 µM		> 100 µM		> 100 µM		> 100 µM		> 100 µM		> 100 µM		> 100
Cc1ncc(C(=O)Nc2ccc(CN3CCN(C)CC3)c(C(F)(F)F)c2)cc1C#Cc1cnc2cccnn12	0.288 µM	3.94 µM	0.593 µM	4.45 µM	1.22 µM	5.63 µM	0.727 µM	2.6 µM	0.413 µM	2.17 µM	0.136 µM	0.663 µM	1.63 µM	7.19 µM	0.156 µM	5.32 µM	0.32 µM	1.53 µM	0.163	0.732
CCC(O)c1ccc(Br)cc1NC(=O)c1cccc(Cl)c1 (configuration not stated)	24.4 µM	> 100 µM	23.1 µM	> 100 µM	37.4 µM	> 100 µM	14.1 µM	31.8 µM	34.5 µM	> 100 µM	12 µM	96 µM	23.7 µM	64.3 µM	15.9 µM	45.5 µM	19.5 µM	> 100 µM	21.3	52.3
O=S(=O)(NC1=NCCN1C(=S)SN1CCn2c1nsc2=S)c1cccc2ccccc12	17.2 µM	37.6 µM	26.3 µM	> 100 µM	62.3 µM	> 100 µM	20.6 µM	49.9 µM	19.3 µM	49.2 µM	7.27 µM	58 µM	31.1 µM	91.5 µM	16.5 µM	60.3 µM	35.2 µM	> 100 µM	24.6	> 100
O=S(=O)(NCCNc1nccc(-c2c(-c3ccc(F)c(O)c3)nc3sccn23)n1)c1ccc(F)cc1	2.83 µM	71.5 µM	3.25 µM	52.6 µM	4.26 µM	> 100 µM	4.75 µM	> 100 µM	3.47 µM	29.2 µM	2.17 µM	12.2 µM	4.28 µM	75.7 µM	2.71 µM	12.9 µM	3.63 µM	58 µM	0.364	16.5
CC(=O)Oc1ccc(C23c4ccccc4C2(OC(C)=O)c2cc(OC(C)=O)ccc23)cc1 (configuration not stated)	5.37 µM	20.2 µM	3.81 µM	17.7 µM	4.64 µM	15.5 µM	2.34 µM	5.63 µM	6.88 µM	20.7 µM	16.6 µM	> 100 µM	20.5 µM	47.6 µM	7.27 µM	72.2 µM	17.6 µM	70.2 µM	14	32.1
NCCSSCCN		> 100 µM		> 100 µM		> 100 µM		> 100 µM		> 100 µM		> 100 µM		> 100 µM		> 100 µM		> 100 µM		> 100
O=C(O)c1ccc(CI)cc1		34.7 µM		39.8 µM		31.9 µM		20.8 µM		35.9 µM		31.1 µM		55 µM		40.7 µM		33.8 µM		41.3
C=CCNc1nc2c(s1)C(=O)c1ccccc1C2=O		27.4 µM		30.7 µM		19.2 µM		20.1 µM		35.6 µM		24.4 µM		31.7 µM		10.6 µM		19.3 µM		16.7
CC(C)Nc1cc(-c2c[nH]c(C(=O)N[C@H](CO)c3cccc(Cl)c3)c2)c(Cl)cn1	4.04 µM and > 4.03 µM	20.9 µM and > 10 µM	2.89 µM and 2.68 µM	14.4 µM and > 10 µM	4.84 µM	20.6 µM and > 10 µM	1.71 µM and 1.09 µM	18 µM and > 10 µM	5.96 µM and 9.49 µM	20.4 µM and > 10 µM	2.16 µM and 1.62 µM	19.1 µM and > 10 µM	3.23 µM and > 7.67 µM	18 µM and > 10 µM	2.55 µM and 2.57 µM	19.6 µM and > 10 µM	2.33 µM and 0.919 µM	20.3 µM and > 10 µM	0.101	> 2.58
COc1ccc2c(=O)cc(-c3ccccc3)[nH]c2c1	3.16 µM	> 100 µM	0.518 µM	> 100 µM	1.75 µM	> 100 µM	0.707 µM	> 100 µM	1.24 µM	> 53.1 µM	0.387 µM	> 100 µM	1.17 µM	> 30.8 µM	1.25 µM	> 100 µM	0.67 µM		5.93	> 100

From PubChem BioAssay (NCI)
